The test system of one assay is ΔywaCΔyjbM B. subtilis. In words: Growth of ΔywaCΔyjbM B. subtilis in valine drop-out S7 medium (functional test for Rel inhibition). In kind it is cell-based, Bacillus subtilis. Particulars: up to 1 mM (0 to 1000 µM). From the text: Finally, we tested the three of our most promising inhibitors (DR-4250, DR-M014 and DR-5163) for RSH inhibition in bacterial culture. For this we used the Gram-positive bacterium B. subtilis due to its better uptake of compounds as compared to Gram-negative species such as E. coli[50]. The functional test for RSH inhibition relied on the auxotrophy of (p)ppGpp-deficient (ppGpp^0) B. subtilis for methionine and branched-chain amino acids valine, leucine and isoleucine. The B. subtilis RSH repertoire consists of one multi-domain ribosome-associated enzyme Rel and two SAS, YwaC and YjbM[3][52]. Because the SAS RelQEf is refractory to inhibition by our test compounds (Supplementary Figure 2), we used a B. subtilis strain lacking SASs (ΔywaCΔyjbM), in which the sole source of (p)ppGpp is Rel[53]. Defined S7 medium[54] lacking valine supports the growth of ΔywaCΔyjbM B. subtilis, but not the ppGpp^0 stain (Supplementary Figure 5). […] This is indicative of the test compounds failing to inhibit Rel and thereby rendering the strain phenotypically ppGpp^0 (Supplementary Figure 5). A lack of cellular uptake is a likely explanation. […]
Growth assays with Bacillus subtilis BSB1 wild type strain
SAS deletion and ppGpp0 strain of B. subtilis5 were grown in S7 liquid medium6 except for amino acid requirements, which were met as described elsewhere 7. On 96-well plate, 90 µl of B subtilis starter culture was mixed with 10 µL of compound dilution (in 5 mM Tris pH 7.2) so that final OD600 was 0.025 (l = 1 cm).
Following incubation was without shaking at 37°C and growth was monitored with Tecan Infinite M200 at OD600 (raw OD600 values are reported). B. subtilis starter culture was prepared as follows. Late exponential phase cells in S7, with full set of amino acids, were diluted ≈10-fold in S7 lacking either valine or lysine so that, after addition of 8% DMSO, OD600 was 0.25. Next, cell suspensions were aliquoted, frozen in liquid nitrogen, and stored at -80°C. Just before the experiment, cells were thawed on ice and appropriate amount of media was […]
DywaC DyjbM BSB1 B. subtilis ppGpp0. BSB1 B. subtilis wild type strain as grown on S7 synthetic media8 drop-out media lacking valine which abolishes the growth of ppGpp0 (Drel DywaC DyjbM) strain due to valine auxotrophy (dashed line). […]
inhibit the Rel and render the strain ppGpp0.

The target of the next assay is T1, E. coli RelA (Escherichia coli, UniProt P0AG20).
T1 construct: made in house
In words: Inhibition of [3H]GDP to [3H]ppGpp conversion by E. coli RelA activated by vacant 70S ribosomes and 100 μM ppGpp. As to conditions: for IC50: 30 nM RelA, 0.5 μM vacant 70S, 100 μM ppGpp; for nHill (Hill coefficient of the titration fit): Supplementary Table 1, 4-parameter logistic model. Type of assay: biochemical. As to the method: For the initial characterization of compounds, we followed the inhibition of [^3H] GDP conversion to [^3H] ppGpp catalyzed by E. coli RelA in a simplified system in which RelA’s activity was induced by vacant 70S ribosomes and 100 μM of ppGpp[15]. Unlabeled ppGpp was added to reaction mixtures in order to linearize the kinetics of [^3H] ppGpp synthesis due to an activating effect on the RelA enzyme. We used a targeted library of 69 nucleotides belonging to several structural classes: ‘true’ ppGpp analogues; Relacin and its derivatives; pyrrolidine, azetidine, piperidine and acyclic phosphonates. Chemical structures of tested compounds and titrations in the RelA:70S:ppGpp system are presented in Supplementary Table 1.
Detailed description of experimental procedures can be found in Supplementary Text. Biochemical assays utilize in vitro translation[58] and stringent response[15] systems from E. coli purified components. Experiments were performed in HEPES:Polymix[58] buffer with either 5 (for enzymatically assembled initiation complexes) or 15 mM (for vacant 70 S, as well as non-enzymatically assembled programmed ribosomes) Mg^2+. Expression and purification of E. faecalis RelQ was performed as per Gaca (2015) and colleagues. GTPase and ppGpp synthesis were followed using TLC separation and radiochemical detection of ^3H-labelled nucleotides. Multiple round in vitro transcription assays were performed as per Bernardo et al.[49] with minor modifications. Inhibition efficiency (IC50) was calculated using 4-parameter logistic model (Hill equation) as per Sebaugh[60].
(§1) Thin layer chromatography (TLC) analysis of nucleotide mixtures
(§2) Both EF-G GTPase reaction and ppGpp synthesis by RelA were followed by TLC analysis followed by scintillation counting according to Mechold and colleagues, with modifications1. Time points from the reaction mixtures (5 μl, see below for details) were quenched by addition 4 μl 70% formic acid supplemented with a cold nucleotide standard used for UV-shadowing (10 mM GDP and 10 mM GTP) and spotted on PEI-TLC plates (Macherey-Nagel). TLC was run in buffer, plates dried, cut into sections guided by UV-shadowing and 3H radioactivity was quantified by scintillation counting in Optisafe-3 (Fisher) scintillation cocktail on Perkin Elmer Tricarb 2810TR counter. Conversion of substrate to product was quantified as described in Shyp et al. (2012)2.
Enzymatic assays with E. coli RelA
Screening: all experiments were performed in HEPES:Polymix, Mg2+ of 5 mM, 37 […]
μM ppGpp was pre-incubated at 37° C for 2 min and then reaction started by addition of 1 mM ATP, time points (5 μl) taken, quenched with formic acid and analyzed by TLC. Inhibition efficiency (IC50) was calculated using 4-parameter logistic model (Hill equation) as per Sebaugh (2011)3. […]

The test system of a further assay is T2, E. coli EF-G.
T2 construct: made in house
Type of assay: biochemical. Particulars: up to 1 mM. The method, then: as §1
as §2, with “(2012)2. […]” for “(2012)2.”
GTPase assays with E. coli EF-G
The reaction mixture contained 0.5 μM 70S, 0.1 μM EF-G, in HEPES:Polymix (25 mM Hepes 7.5/ 1 mM DTT / 5 mM Mg2+) pre-incubated for 2 minutes at 37°C prior to addition of 300 μM [3H]GTP substrate (Hartman), after which time points (5 μl) taken, quenched with formic acid and analyzed by TLC (see above). […]

Assay [1] concerns T3, E. coli σ70-RNAP holoenzyme.
T3 construct: purchased Epicentre
Put plainly: Multiple round in vitro transcription by σ70-RNAP (rrnB P1 and rna1 promoters). Type of assay: biochemical, Escherichia coli. Particulars: for Effect of DksA addition on RNAP inhibition, rrnB P1 promoter (in words): 2 μM DksA; for Inhibition of RNAP, rrnB P1 promoter (in words): absence of DksA, irrespective of presence or absence of 100 μM ppGpp.
Description: Next, we tested their effects on RNAP. […] We used multiple round in vitro transcription driven from the rrnB P1, a well-characterized ppGpp/DksA inhibited promoter, as described earlier[49]. The assays were performed in the presence and absence of 2 μM DksA and/or 100 μM ppGpp (Fig. 5a).
Effect of inhibitors on rrnB P1 (−66 to +50) promoter transcription by RNAP. Graphs depicting inhibitor (0, 0.025, 0.05, 0.15, 0.4 and 0.6 mM) titrations performed at 30 °C in T-buffer with 0.5 nM template (σ^70-rrnB P1 promoter (pRLG6214)) and 5 nM σ^70-RNAP, in presence or absence of 100 μM ppGpp and/or 2 μM DksA. Error bars represent standard deviations of linear regression estimates, each experiment was performed at least three times.
The assays were performed as per Bernardo et al. (2006)4 with minor modifications. Reactions were carried out in T-buffer (50 mM Tris-HCl pH 7.5, 100 mM NaCl, 10 mM MgCl2, 1 mM dithiothreitol, 0.1 mM EDTA and 0.275 mg of BSA per ml) at 30°C. Inhibitors were titrated to final concentrations of 0, 0.025, 0.05, 0.15, 0.4 and 0.6 mM. E. coli s 70-RNAP holoenzyme (Epicentre, final concentration 5 nM) and template plasmid DNA containing s70-rrnB P1 promoter, (pRLG6214, final concentration 0.5 nM) was used for all experiments. Before initiation of transcription, E. coli s70-RNAP holoenzyme and T buffer were incubated at 30°C for 5 min. Above mix was added to predispensed mixture of inhibitor and the template plasmid DNA containing s70-rrnB P1 promoter (pRLG6214), incubated for further 20 min to initiate open complex formation. 2.5 µl of a mixture of ATP (ﬁnal concentration 0.5 mM), GTP and CTP (ﬁnal concentration 0.2 mM each), UTP (ﬁnal concentration 0.08 mM) and [a-32P]-UTP (5 µCi at > 3000 Ci/mmol, PerkinElmer) was added to initiate transcription by RNAP. After 7 min, 1 µl heparin (0.125 mg/ml ﬁnal concentration) was added to the reaction mixture to prevent re-initiation and further incubated for 5 min to allow completion of initiated transcripts. Transcription was terminated by addition of formamide loading buffer and samples were electrophoresed on a 7M urea-5% polyacrylamide gel and quantified by phosphorimaging.

Setting [2] is: 0.3 mM [3H]GDP, 1 mM ATP, read-out: IC50.
Where [3] appears, read: 5 mM Mg2+, 37 °C, no unit beside the value, titration axis in mM, read-out: IC50 (Supplementary Table 1, example titration).

The structures appear in SMILES notation. “Also recorded” adds a separate entry of the source. Where two headings read alike, the source gives them in different places.

T1 sequence (P0AG20 whole entry): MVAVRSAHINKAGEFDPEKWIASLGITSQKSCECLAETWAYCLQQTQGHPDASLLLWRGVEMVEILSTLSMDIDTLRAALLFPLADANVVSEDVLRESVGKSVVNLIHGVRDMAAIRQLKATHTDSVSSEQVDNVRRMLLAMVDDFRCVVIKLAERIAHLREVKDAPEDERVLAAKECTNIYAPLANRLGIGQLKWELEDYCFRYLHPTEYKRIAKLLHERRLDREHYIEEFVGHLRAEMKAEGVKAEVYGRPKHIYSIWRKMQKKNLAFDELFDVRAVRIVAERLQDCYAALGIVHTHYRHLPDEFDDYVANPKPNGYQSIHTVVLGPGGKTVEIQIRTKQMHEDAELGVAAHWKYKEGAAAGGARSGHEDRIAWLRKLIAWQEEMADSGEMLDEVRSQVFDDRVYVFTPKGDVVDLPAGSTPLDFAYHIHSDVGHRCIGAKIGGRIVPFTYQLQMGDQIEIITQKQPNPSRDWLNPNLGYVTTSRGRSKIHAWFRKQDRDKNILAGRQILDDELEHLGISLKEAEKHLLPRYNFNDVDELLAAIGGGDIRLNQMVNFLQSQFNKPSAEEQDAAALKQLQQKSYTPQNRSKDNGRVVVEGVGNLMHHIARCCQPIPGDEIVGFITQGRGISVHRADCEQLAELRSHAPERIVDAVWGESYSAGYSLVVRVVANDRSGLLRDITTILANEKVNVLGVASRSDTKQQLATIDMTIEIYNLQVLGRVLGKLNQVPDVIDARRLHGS

`Nc1nc2c(ncn2C2OC(COP(=O)(O)OCP(=O)(O)O)C(OP(=O)(O)OCP(=O)(O)O)C2O)c(=O)[nH]1` (stereo not shown) [DR-4250, Guanosine 3’,5’-di(phosphonomethoxyphosphate)]: the “Effect on growth of ΔywaCΔyjbM B. subtilis (in words)” value in the assay on ΔywaCΔyjbM B. subtilis is given as “did not affect bacterial growth; also recorded: does not affect the growth”. The IC50 at E. coli RelA (setting [2]) stood at 0.054 ± 0.003 mM. For the same molecule, at E. coli RelA (setting [3]), the IC50 turned out to be 0.053 ± 0.003 mM. Besides, the “nHill (Hill coefficient of the titration fit)” value on E. coli RelA was determined as 2.74 ± 0.5. The “Inhibitory effect on EF-G GTPase activity (in words)” value with E. coli EF-G is given as “no inhibitory effect”. Moreover, in assay [1], the “Effect of DksA addition on RNAP inhibition, rrnB P1 promoter (in words)” value was “pronounced protective effect” and the “Inhibition of RNAP, rrnB P1 promoter (in words)” value is listed as “more potent inhibitors of RNAP then of RelA”. In addition, in assay [1] (presence or absence of 100 μM ppGpp and/or 2 μM DksA (Supplementary Figure 4)), the “Inhibition of RNAP, ppGpp-insensitive promoter rna1 (in words)” value is given as “the same behavior”.

`Nc1nc2c(ncn2C2CCN(C(=O)P(=O)(O)O)CC2)c(=O)[nH]1` [DR-M014]: the “Effect on growth of ΔywaCΔyjbM B. subtilis (in words)” value is listed as “does not affect the growth” with ΔywaCΔyjbM B. subtilis and “did not affect bacterial growth” in the assay with ΔywaCΔyjbM B. subtilis (listed as DR-M013). For the same molecule, the values for the IC50 at E. coli RelA (setting [2]) and on E. coli RelA (setting [3]) were 0.121 ± 0.02 mM and 0.12 ± 0.02 mM, respectively. Further, the “nHill (Hill coefficient of the titration fit)” value at E. coli RelA turned out to be 1.9 ± 0.5. The “Inhibitory effect on EF-G GTPase activity (in words)” value with E. coli EF-G is on record as “no inhibitory effect”. For the same molecule, the “Effect of DksA addition on RNAP inhibition, rrnB P1 promoter (in words)” value in assay [1] is “pronounced protective effect”. Besides, in assay [1], the “Inhibition of RNAP, rrnB P1 promoter (in words)” value is recorded as “more potent inhibitors of RNAP then of RelA”.

The values above are taken from article PMC5291098, “Molecular mutagenesis of ppGpp: turning a RelA activator into an inhibitor” (Scientific Reports, 2017).
